The values that follow come from patent US9650616B2, “Methods for increasing grain yield” (University of Florida Research Foundation, Inc., priority 2014, dated 2017).

What is called kcat is the maximal rate divided by the concentration of active sites. One may read the Km as the concentration of substrate that gives half-maximal velocity.

Assay [1] has as its target T1, maize endosperm AGPase, evolutionary mutant SH2-E (Zea mays, UniProt P55241+Q84PF5).
T1 construct: data of Boehlein et al., 2013
Conditions: cited from earlier work.

The target in assay [2] is T2, maize endosperm AGPase, large subunit variant D161G (numbering of SEQ ID NO: 20) (Zea mays, UniProt P55241+Q84PF5, D161G).
T2 sequence (P55241 46-516 D161G): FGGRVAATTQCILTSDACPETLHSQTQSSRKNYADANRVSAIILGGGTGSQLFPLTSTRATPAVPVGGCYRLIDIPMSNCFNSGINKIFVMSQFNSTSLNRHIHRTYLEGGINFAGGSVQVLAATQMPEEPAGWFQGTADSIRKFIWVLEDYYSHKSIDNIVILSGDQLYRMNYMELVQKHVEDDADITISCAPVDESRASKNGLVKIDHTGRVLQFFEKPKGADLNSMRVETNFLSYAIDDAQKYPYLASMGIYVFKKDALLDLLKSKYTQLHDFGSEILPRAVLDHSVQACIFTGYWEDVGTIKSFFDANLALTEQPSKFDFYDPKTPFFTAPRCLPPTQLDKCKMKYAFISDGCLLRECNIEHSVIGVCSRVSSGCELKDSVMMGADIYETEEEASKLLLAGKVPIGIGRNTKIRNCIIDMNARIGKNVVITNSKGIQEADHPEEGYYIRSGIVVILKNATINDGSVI
T2 sequence (Q84PF5 1-474): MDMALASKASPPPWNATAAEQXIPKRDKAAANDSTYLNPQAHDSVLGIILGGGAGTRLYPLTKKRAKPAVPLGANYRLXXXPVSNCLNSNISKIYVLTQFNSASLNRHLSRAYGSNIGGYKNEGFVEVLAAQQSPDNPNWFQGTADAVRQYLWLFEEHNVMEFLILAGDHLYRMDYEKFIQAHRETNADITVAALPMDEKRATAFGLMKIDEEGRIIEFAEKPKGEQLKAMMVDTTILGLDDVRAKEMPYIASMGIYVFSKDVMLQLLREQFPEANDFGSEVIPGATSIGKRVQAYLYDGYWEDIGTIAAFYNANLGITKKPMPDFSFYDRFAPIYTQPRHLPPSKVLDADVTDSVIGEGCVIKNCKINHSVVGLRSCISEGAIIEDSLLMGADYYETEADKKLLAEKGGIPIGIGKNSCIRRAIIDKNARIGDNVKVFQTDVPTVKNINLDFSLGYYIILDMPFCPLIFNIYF
The assay is described as follows: Kinetic constants in the absence of 3-PGA, D161G. In kind it is biochemical. As to the method: Reactions were performed for 10 min and terminated by boiling. Blank mixtures contained everything except ATP.
Based on the kinetic results (Table 10) and catalytic properties at 55° C. (Table 10) both D161G and GGR were selected for a more detailed kinetic analysis. […] The GGR mutant was primarily chosen based on its increased catalytic rate at 37° C. and high performance at 55° C. Its high activity in the absence of 3-PGA was also paramount. The first kinetic parameters determined were the Michaelis constants, the catalytic rate (kcat) and the dissociation constant (Kia) for the E-ATP complex, in the absence of 3-PGA. […] For the wt maize enzyme, this activator primarily responds by reducing the Km for both substrates, with little effect on the reaction rate (Boehlein et al., 2013). […] The kinetic mechanism established ATP as the first substrate to bind, thus the activator is no longer necessary for this first step. […] This variant also conditions both heat stability and high activity in the absence of an activator.

Assay [3] deals with maize endosperm AGPase, heat stable ISM mutants. Nature of the assay: Apparent kinetic constants with 3-PGA, 37° C., ISM mutants collectively. The format is biochemical, Zea mays. The note with it: mutants versus wt maize, in the presence of 3-PGA. How it is done:
An endpoint assay was used to determine the rate of the AGPase reaction by coupling the formation of PPi to a decrease in NADH concentration (Boehlein et al., 2008). […] The Michaelis constants (Km) were obtained by varying one substrate in the presence of saturating concentrations of the second substrate. The activation constants were obtained by varying the activator at fixed levels of both substrates. All reactions were performed at 37° C. and mixes were prewarmed before starting the reaction with enzyme. Reactions were terminated by boiling the reaction mixes for 2 minutes followed by development with 200 μl of coupling reagent (25 mM imidazole pH 7.4, 4 mM MgCl2, 1 mM EDTA, 0.2 mM NADH, 0.725 U aldolase, 0.4 U triose phosphate isomerase, 0.6 U glycerophosphate dehydrogenase, 1 mM fructose 6-phosphate and 0.8 μg purified PPi-PFK per reaction). The absorbance at 340 nm was monitored after 30 min and the amount of PPi produced was determined from a standard curve using PPi in complete reaction mixtures lacking AGPase. Blank samples contained complete reaction mixtures without enzyme and the change in absorbance between the blank and the reaction was used to calculate the amount of PPi produced. Reactions were linear with time and enzyme concentration.
The apparent Michaelis constant and maximum velocity of each reaction was calculated from a V vs. S plots using nonlinear regression analysis and the following equation, v=VmaxS/(Km+S), where v is the measured velocity, Vmax is the maximum velocity, S is the substrate concentration. The activation constant (Ka) was obtained using the following equation: V=Vmin+Vmax*(X)/(Ka+X), where Vmin is the velocity in the absence of activator and Vmax is the change in activity from Vmin to the total velocity. X is the activator concentration, Ka is the activation constant. All linear regression was carried out using the software program Prism (Graph Pad, San Diego Calif.).
Each mutant, comprising 1, 2, 3 or 4 changes, was grown in a large scale culture, expressed and purified according to standard procedures (Boehlein et al., 2005). […] Thus, the effects of these mutations on the kinetic constants are minimal. Next, the activation constant, Ka, was determined for each of the mutant enzymes. Here a decrease in the Ka for each of the mutants of approximately 3-6 fold was observed. This property appears to stem from the D161G change, and includes all enzymes which carry this mutation (Table 8). To be certain the effect is the result of the D161G mutation, and not the result of other single mutant changes, Q96R and Q96G were purified and characterized.

Assay [4] concerns maize endosperm AGPase, wild type (Maize-wt). Conditions: absence of 3-PGA, cited from earlier work.
For assay [5], the system named is maize endosperm AGPase, wild type. The note with it: cited from earlier work.

Where two headings read alike, the source gives them in different places.

T1 sequence (P55241 46-516, change not shown, one chain of several): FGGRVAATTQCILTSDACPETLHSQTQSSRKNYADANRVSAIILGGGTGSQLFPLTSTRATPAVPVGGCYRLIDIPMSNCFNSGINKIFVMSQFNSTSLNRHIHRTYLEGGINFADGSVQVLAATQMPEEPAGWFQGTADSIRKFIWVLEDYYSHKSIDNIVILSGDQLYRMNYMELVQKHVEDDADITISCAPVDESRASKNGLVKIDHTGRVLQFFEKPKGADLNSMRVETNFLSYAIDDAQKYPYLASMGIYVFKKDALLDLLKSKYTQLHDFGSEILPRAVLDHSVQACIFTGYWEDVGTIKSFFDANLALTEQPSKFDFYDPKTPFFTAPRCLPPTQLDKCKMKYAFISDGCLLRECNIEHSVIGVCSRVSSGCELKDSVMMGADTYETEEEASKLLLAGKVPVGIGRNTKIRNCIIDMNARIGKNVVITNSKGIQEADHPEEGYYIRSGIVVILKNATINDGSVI

As for `Nc1ncnc2c1ncn2[C@@H]1O[C@H](COP(=O)(O)OP(=O)(O)OP(=O)(O)O)[C@@H](O)[C@H]1O` [ATP], the values for the kcat in assay [1] (absence of 3-PGA), in assay [2] (ATP varied at fixed G-1-P) and in assay [4] were 67.6 s⁻¹, 48.8 s⁻¹ and 35.2 s⁻¹, respectively. The Km is 2.53 mM in assay [1] (read-out: ATP Km, absence of 3-PGA); 0.043 mM in assay [2] (read-out: ATP Km); 4 mM in assay [4] (apparent Km in the presence of 15 mM G-1-P, read-out: ATP Km (apparent)); 20.4 mM in assay [5] (Maize wt, absence of 3-PGA, ATP varied, Pi inhibition, P-MT, read-out: Km (ATP)); over 20 mM in assay [5] (wt maize AGPase, absence of activator, Pi inhibition assay, read-out: Km for both substrates). In addition, in assay [1] (read-out: Kia (dissociation constant for the E-ATP complex), absence of 3-PGA), the Kd was 5.4 mM. Besides, the “decrease of Km for ATP compared to wild-type” value in assay [2] is listed as about 100 ×. The “largest variation in Km” value in assay [3] is “approximately two-fold”.
